From PubChem BioAssay (NCI)
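Cultured in 96-well plates, cells were exposed to test compound for 48 hours across five concentrations. At the TGI there is no net growth.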

Legend:
Test in all cases: NCI-60 cell line screen, 48 h
[1] = test system: CCRF-CEM leukemia
[2] = test system: RXF 393 renal
[3] = test system: M14 melanoma
[4] = test system: OVCAR-8 ovarian
[5] = test system: CAKI-1 renal
[6] = test system: U251 CNS
[7] = test system: ACHN renal
[8] = test system: SF-539 CNS
[9] = test system: A498 renal
[10] = test system: RXF-631 renal
[11] = test system: HOP-92 NSCLC
[12] = test system: SK-MEL-5 melanoma
[13] = test system: HL-60(TB) leukemia
[14] = test system: A549 NSCLC
[15] = test system: OVCAR-3 ovarian
[16] = test system: NCI-H226 lung
[17] = test system: UO-31 renal
[18] = test system: XF 498 CNS
[19] = test system: IGROV1 ovarian
[20] = test system: SNB-19 CNS
[21] = test system: NCI-H23 lung
[22] = test system: 786-0 renal
[23] = test system: HCT-15 colon
[24] = test system: SF-295 CNS
[25] = test system: SK-MEL-28 melanoma
[26] = test system: KM20L2 colon
[27] = test system: OVCAR-4 ovarian
[28] = test system: DLD-1 colon
[29] = test system: LXFL 529 NSCLC
[30] = test system: HOP-62 NSCLC
[31] = test system: EKVX NSCLC
[32] = test system: UACC-257 melanoma
[33] = test system: SK-OV-3 ovarian
[34] = test system: COLO 205 colon
[35] = test system: NCI-H460 lung
[36] = test system: HT29 colon
[37] = test system: SNB-78 CNS
[38] = test system: HOP-18 NSCLC
[39] = test system: MOLT-4 leukemia
[40] = test system: RPMI-8226 leukemia
[41] = test system: TK-10 renal
[42] = test system: M19-MEL melanoma
[43] = test system: SW-620 colon
[44] = test system: UACC-62 melanoma
[45] = test system: OVCAR-5 ovarian
[46] = test system: MALME-3M melanoma
[47] = test system: SN12C renal
[48] = test system: K-562 leukemia
[49] = test system: DMS 114 small cell lung
[50] = test system: SF-268 CNS
[51] = test system: HCC-2998 colon
[52] = test system: NCI-H522 lung
[53] = test system: SR leukemia
[54] = test system: SK-MEL-2 melanoma
[55] = test system: DMS 273 small cell lung
[56] = test system: KM12 colon
[57] = test system: LOX IMVI melanoma
[58] = test system: SNB-75 CNS
[59] = test system: HCT-116 colon

Measured: TGI

COC(=O)C12C3C4C1C1C2C3C41C(=O)O (stereo not given)
not listed: [52] | [53] | [54] | [55] | [56] | [57] | [58] | [59]
> 100 µM: all other assays above

COC(=O)c1sc(=O)n(-c2ccccc2)c1SCc1ccccc1
not listed: [5] | [9] | [37] | [49] | [50]
> 100 µM: all other assays above
